One assay has as its system A549. Briefly: Antiproliferative activity against human A549 cells after 48 hrs. The settings on record: A549, 48 h. The format is functional, cell-based.
In a further assay the test system is HeLa. Briefly: Antiproliferative activity against human HeLa cells after 48 hrs. In kind it is functional, cell-based.

In general, IC50 refers to the midpoint of a concentration-inhibition curve. A high value points to lower potency.

In the case of `O=C1Nc2ccccc2/C1=C\c1n[nH]c2ccccc2c1=O`, the IC50 in the assay with A549 and with HeLa was over 100 µM in each case.

Take `O=C1Nc2ccccc2/C1=C/c1nc2ccccc2c(=O)[nH]1`: the IC50 is over 100 µM in the assay with A549 and 15.2 µM with HeLa.

Regarding `O=C1Nc2ccccc2/C1=C\c1nnc2ccccc2c1Cl`, the results for the IC50 in the assay on A549 and in the assay on HeLa were 93.3 µM and 7.8 µM, respectively.

Turning to `CC(=O)N1C(=O)/C(=C/c2nnc3ccccc3c2Cl)c2ccccc21`, the IC50 was over 100 µM with A549 and 28.8 µM with HeLa.

Take `COc1c(/C=C2/C(=O)Nc3ccccc32)nnc2ccccc12`: the figures for the IC50 in the assay with A549 and with HeLa were over 100 µM and 19.6 µM, respectively.
